Results published in patent US20230016424A1, “HYBRID AMIDE DERIVATIVES OF AMPHOTERICIN B” (The Board of Trustees of the University of Illinois, priority 2019, published 2023).
Converted amounts (≈) assume the structure as drawn.

Experiments:
[1] = test system: C. albicans SN250, C. albicans, C. krusei, C. glabrata, C. tropicalis, A. fumigatus 91, 1163, 1100; experiment: Average MIC over the tested strains; type: cell-based; details: Tables 8 and 9, average over the 8 listed strains
A. fumigatus 1163 = experiment: MIC; type: cell-based
C. glabrata = experiment: MIC; type: cell-based
C. tropicalis = experiment: MIC; type: cell-based
C. albicans SN250 = experiment: MIC; type: cell-based, Candida albicans
A. fumigatus 1100 = experiment: MIC; type: cell-based
C. albicans = experiment: MIC; type: cell-based
C. krusei = experiment: MIC; type: cell-based
[2] = Liver Microsome stability (In Vitro Metabolism); type: in vitro ADME; details: for Remaining (T = NCF60 min): no cofactor 60 min
Method: Working Compound solution: 10 uM in 50 mM potassium phosphate buffer with 9% MeOH and 1% DMSO
Microsome solution: working concentration 0.625 mg/ml
Stopping solution: Cold ACN with 200 ng/ml Tolbutamide and 200 ng/ml Labetalol (4° C.)
Procedure: In the well plates (T5, T10, T20, T30, T60, NCF60 (no cofactor 60)) 10 uL of the compound/control working solution was added (except T0 and matric blank) followed by microsome solution (80 uL) and the mixture was incubated at 37 C for about 10 mins. A solution of potassium phosphate (10 ul of 50 mM) was added to NCF60 well, incubated at 37 C and time counting started. After prewarming 10 ul of NADPH regenerating solution was added to each plate to start the reaction. At different time point 300 uL/well of stopping solution to terminate the reaction. The sampling plates were shaken for 10 mins and the centrifuged for 20 mins at 4000 rpm. The supernatant was half diluted with ultra pure water and the analyzed using LCMS.

Plasma Stability = type: in vitro ADME
Method: Plasma Stability: Procedure: […] Plasma was warmed to 37° C. prior to the experiment and centrifuged for 5 mins at 4000 rpm. […] Each time point was monitored in triplicate (0, 10, 30, 60 and 120 min). 4 uL/well aliquot of the working solution was mixed to the blank plasma and incubated at 37° C. AT each time point samples were quenched with ACN stop solution containing 200 ng/ml Tolbutamide & 200 ng/ml Labetalol at 1:3 ratio and mix well on shaker for 10 min then centrifuge at 4000 rpm for 15 min. A 100 ul aliquot of supernatant was mixed with 100 μL of ultra-pure and submitted for LC-MS/MS analysis.

## CC1C=CC=CC=CC=CC=CC=CC=CC(OC2OC(C)C(O)C(N)C2O)CC2OC(O)(CC(O)CC(O)C(O)CCC(O)CC(O)CC(=O)OC(C)C(C)C1O)CC(O)C2C(=O)NC1CCCCC1 (centres unmarked) [AR6]
[1]
  Average MIC: 891 µM
A. fumigatus 1163
  MIC A. fumigatus 1163: 1000 µM (≈ 1010 µg/mL)
C. glabrata
  MIC C. glabrata: 750 µM (≈ 754 µg/mL)
C. tropicalis
  MIC C. tropicalis: 500 µM (≈ 503 µg/mL)
C. albicans SN250
  MIC C. albicans SN250: 500 µM (≈ 503 µg/mL)
A. fumigatus 1100
  MIC A. fumigatus 1100: 1500 µM (≈ 1510 µg/mL)

## CC1C=CC=CC=CC=CC=CC=CC=CC(OC2OC(C)C(O)C(N)C2O)CC2OC(O)(CC(O)CC(O)C(O)CCC(O)CC(O)CC(=O)OC(C)C(C)C1O)CC(O)C2C(=O)NC1CC1 (centres unmarked) [AR3]
[1]
  Average MIC: 438 µM
A. fumigatus 1163
  MIC A. fumigatus 1163: 500 µM (≈ 482 µg/mL)
C. albicans
  MIC C. albicans: 250 µM (≈ 241 µg/mL)
C. tropicalis
  MIC C. tropicalis: 250 µM (≈ 241 µg/mL)
C. krusei
  MIC C. krusei: 250 µM (≈ 241 µg/mL)

## CNC(=O)C1C(O)CC2(O)CC(O)CC(O)C(O)CCC(O)CC(O)CC(=O)OC(C)C(C)C(O)C(C)C=CC=CC=CC=CC=CC=CC=CC(OC3OC(C)C(O)C(N)C3O)CC1O2 (centres unmarked) [AN]
[2]; Dog liver microsomes
  CL: <9.6 µL/min/mg
  CLint: <14 mL/min/kg
  Remaining (T = 60 min): 92.4%
  T1/2: >2.42 h
  Remaining (T = NCF60 min): 113%
[2]; Human liver microsomes
  CL: <9.6 µL/min/mg
  CLint: <8.6 mL/min/kg
  Remaining (T = 60 min): 104%
  T1/2: >2.42 h
  Remaining (T = NCF60 min): 127%
[2]; Monkey liver microsomes
  CL: <9.6 µL/min/mg
  CLint: <13 mL/min/kg
  Remaining (T = 60 min): 139%
  T1/2: >2.42 h
  Remaining (T = NCF60 min): 135%
[2]; Mouse liver microsomes
  CL: <9.6 µL/min/mg
  CLint: <38 mL/min/kg
  Remaining (T = 60 min): 102%
  T1/2: >2.42 h
  Remaining (T = NCF60 min): 131%
[2]; Rat liver microsomes
  CL: <9.6 µL/min/mg
  CLint: <17 mL/min/kg
  Remaining (T = 60 min): 106%
  T1/2: >2.42 h
  Remaining (T = NCF60 min): 93%
Plasma Stability; Human Plasma
  % Remaining at 120 min: 106%
  Half Life: >4.82 h
Plasma Stability; Rat Plasma
  % Remaining at 120 min: 118%
  Half Life: >4.82 h

## CC1C=CC=CC=CC=CC=CC=CC=CC(OC2OC(C)C(O)C(N)C2O)CC2OC(O)(CC(O)CC(O)C(O)CCC(O)CC(O)CC(=O)OC(C)C(C)C1O)CC(O)C2C(=O)NC1CCCCCCCCCCC1 (centres unmarked) [AR12]
[1]
  Average MIC: 5000 µM
C. albicans
  MIC C. albicans: 2000 µM (≈ 2180 µg/mL)
C. tropicalis
  MIC C. tropicalis: 3000 µM (≈ 3270 µg/mL)
A. fumigatus 1100
  MIC A. fumigatus 1100: 8000 µM (≈ 8720 µg/mL)
C. krusei
  MIC C. krusei: 8000 µM (≈ 8720 µg/mL)

## CC1C=CC=CC=CC=CC=CC=CC=CC(OC2OC(C)C(O)C(N)C2O)CC2OC(O)(CC(O)CC(O)C(O)CCC(O)CC(O)CC(=O)OC(C)C(C)C1O)CC(O)C2C(=O)NC1CCCCCC1 (centres unmarked) [AR7]
[1]
  Average MIC: 1469 µM
C. glabrata
  MIC C. glabrata: 2000 µM (≈ 2040 µg/mL)
C. krusei
  MIC C. krusei: 1000 µM (≈ 1020 µg/mL)

## CC1C=CC=CC=CC=CC=CC=CC=CC(OC2OC(C)C(O)C(N)C2O)CC2OC(O)(CC(O)CC(O)C(O)CCC(O)CC(O)CC(=O)OC(C)C(C)C1O)CC(O)C2C(=O)NC1CCCC1 (centres unmarked) [AR5]
[1]
  Average MIC: 1063 µM
C. tropicalis
  MIC C. tropicalis: 500 µM (≈ 496 µg/mL)
C. albicans SN250
  MIC C. albicans SN250: 500 µM (≈ 496 µg/mL)
A. fumigatus 1100
  MIC A. fumigatus 1100: 1500 µM (≈ 1490 µg/mL)
C. krusei
  MIC C. krusei: 500 µM (≈ 496 µg/mL)

## CC1C=CC=CC=CC=CC=CC=CC=CC(OC2OC(C)C(O)C(N)C2O)CC2OC(O)(CC(O)CC(O)C(O)CCC(O)CC(O)CC(=O)OC(C)C(C)C1O)CC(O)C2C(=O)NC1CCCCCCCCC1 (centres unmarked) [AR-10]
[1]
  Average MIC: 2250 µM
C. glabrata
  MIC C. glabrata: 2000 µM (≈ 2120 µg/mL)
C. albicans SN250
  MIC C. albicans SN250: 1000 µM (≈ 1060 µg/mL)
C. krusei
  MIC C. krusei: 1000 µM (≈ 1060 µg/mL)

## COC(=O)C(Cc1c[nH]cn1)NC(=O)C1C(O)CC2(O)CC(O)CC(O)C(O)CCC(O)CC(O)CC(=O)OC(C)C(C)C(O)C(C)C=CC=CC=CC=CC=CC=CC=CC(OC3OC(C)C(O)C(N)C3O)CC1O2 (centres unmarked) [AL]
[2]; Dog liver microsomes
  CL: <9.6 µL/min/mg
  CLint: <14 mL/min/kg
  Remaining (T = 60 min): 101%
  T1/2: >2.42 h
  Remaining (T = NCF60 min): 87.1%
[2]; Human liver microsomes
  CL: <9.6 µL/min/mg
  CLint: <8.6 mL/min/kg
  Remaining (T = 60 min): 113%
  T1/2: >2.42 h
  Remaining (T = NCF60 min): 96.8%
[2]; Monkey liver microsomes
  CL: <9.6 µL/min/mg
  CLint: <14 mL/min/kg
  Remaining (T = 60 min): 107%
  T1/2: >2.42 h
  Remaining (T = NCF60 min): 106%
[2]; Mouse liver microsomes
  CL: <9.6 µL/min/mg
  CLint: <38 mL/min/kg
  Remaining (T = 60 min): 127%
  T1/2: >2.42 h
  Remaining (T = NCF60 min): 139%
[2]; Rat liver microsomes
  CL: <9.6 µL/min/mg
  CLint: <17 mL/min/kg
  Remaining (T = 60 min): 132%
  T1/2: >2.42 h
  Remaining (T = NCF60 min): 75.4%
Plasma Stability; Human Plasma
  % Remaining at 120 min: 107%
  Half Life: >4.82 h
Plasma Stability; Rat Plasma
  % Remaining at 120 min: 111%
  Half Life: >4.82 h
